Measurements reported in patent publication US20170190671A1, “BIS(ARYL)CATECHOL DERIVATIVES AS HERBICIDES” (E I DU PONT DE NEMOURS AND COMPANY, priority 2014, published 2017).

Key:
Format in all cases: in vivo
[1] = test system: ragweed (common ragweed, Ambrosia elatior); experiment: Test A preemergence; settings: Ambrosia artemisiifolia, pre-emergence, 240 h
Procedure, shortened: (§1)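 Pre- and postemergence greenhouse screen. Soil: loam + sand. Spray carrier: solvent mixture, non-phytotoxic, with surfactant. Post timing at 1–2 leaves, height 2–10 cm. Readout: visual injury on a 0–100 scale roughly 10 days after application, untreated plants as reference.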

[2] = test system: barnyardgrass (Echinochloa crus-galli); experiment: Test A preemergence; settings: Echinochloa crus-galli, pre-emergence, 240 h
Procedure, shortened: as §1

[3] = test system: Italian ryegrass (Lolium multiflorum); experiment: Test A preemergence; settings: Lolium multiflorum, pre-emergence, 240 h
Procedure, shortened: as §1

[4] = test system: pigweed (Amaranthus retroflexus); experiment: Test A preemergence; settings: Amaranthus retroflexus, pre-emergence, 240 h
Procedure, shortened: as §1

kochia (Kochia scoparia) [5] = experiment: Test A preemergence; settings: Bassia scoparia, pre-emergence, 240 h
Procedure, shortened: as §1

[6] = test system: giant foxtail (Setaria faberii); experiment: Test A preemergence; settings: Setaria faberi, pre-emergence, 240 h
Procedure, shortened: as §1

[7] = test system: lambsquarters (Chenopodium album); experiment: Test C preemergence; settings: Chenopodium album, pre-emergence, 336 h, scale 0 to 100, read-out: Plant response rating, Lambsquarters
Procedure, shortened: (§2)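 Seeds in loam-sand soil were treated preemergence, and plants at the 1- to 4-leaf stage (2-18 cm) in peat-based medium were sprayed postemergence, with test chemicals in a non-phytotoxic solvent containing surfactant. After 13-15 days in a greenhouse, response was rated visually against controls from 0 (no effect) to 100 (complete control).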

[8] = test system: barnyardgrass (Echinochloa crus-galli); experiment: Test C preemergence; settings: Echinochloa crus-galli, pre-emergence, read-out: Plant response rating, Barnyardgrass
Procedure, shortened: as §2

[9] = test system: blackgrass (Alopecurus myosuroides); experiment: Test A postemergence; settings: Alopecurus myosuroides, post-emergence, 240 h, 0 to 100 scale, read-out: Plant response rating, Blackgrass
Procedure, shortened: as §1

[10] = test system: ragweed (common ragweed, Ambrosia elatior); experiment: Test A postemergence; settings: Ambrosia artemisiifolia, post-emergence, 240 h, 0 to 100 scale, read-out: Plant response rating, Ragweed
Procedure, shortened: as §1

[11] = test system: barnyardgrass (Echinochloa crus-galli); experiment: Test A postemergence; settings: Echinochloa crus-galli, post-emergence, 240 h, 0 to 100 scale, read-out: Plant response rating, Barnyardgrass
Procedure, shortened: as §1

corn (Zea mays) = experiment: Test A postemergence; settings: Zea mays, post-emergence, 240 h, 0 to 100 scale
Procedure, shortened: as §1

[12] = test system: Italian ryegrass (Lolium multiflorum); experiment: Test A postemergence; settings: Lolium multiflorum, post-emergence, 240 h, 0 to 100 scale, read-out: Plant response rating, Ryegrass, Italian
Procedure, shortened: as §1

[13] = test system: wheat (Triticum aestivum); experiment: Test A postemergence; settings: Triticum aestivum, post-emergence, 240 h, 0 to 100 scale, read-out: Plant response rating, Wheat
Procedure, shortened: as §1

[14] = test system: pigweed (Amaranthus retroflexus); experiment: Test A postemergence; settings: Amaranthus retroflexus, post-emergence, 240 h, 0 to 100 scale, read-out: Plant response rating, Pigweed
Procedure, shortened: as §1

[15] = test system: galium (catchweed bedstraw, Galium aparine); experiment: Test A postemergence; settings: Galium, post-emergence, 240 h, 0 to 100 scale, read-out: Plant response rating, Galium
Procedure, shortened: as §1

kochia (Kochia scoparia) [16] = experiment: Test A postemergence; settings: Bassia scoparia, post-emergence, 240 h, 0 to 100 scale, read-out: Plant response rating, Kochia
Procedure, shortened: as §1

[17] = test system: giant foxtail (Setaria faberii); experiment: Test A postemergence; settings: Setaria faberi, post-emergence, 240 h, 0 to 100 scale, read-out: Plant response rating, Foxtail, Giant
Procedure, shortened: as §1

rice (Oryza sativa) = experiment: Test B flooded paddy; settings: Oryza sativa, 336 h; 250 g ai/ha, Flood, 13 to 15 days, scale 0 (no effect) to 100 (complete control); read-out: Plant response rating, Rice
Procedure, shortened: (§3)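 Ratings were visual and made relative to untreated controls after 13 to 15 greenhouse days.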

[18] = test system: barnyardgrass (Echinochloa crus-galli); experiment: Test B flooded paddy; settings: Echinochloa crus-galli, 336 h; 250 g ai/ha, Flood, 13 to 15 days, scale 0 (no effect) to 100 (complete control); read-out: Plant response rating, Barnyardgrass
Procedure, shortened: as §3

[19] = test system: ducksalad (Heteranthera limosa); experiment: Test B flooded paddy; settings: Heteranthera limosa, 336 h; 250 g ai/ha, Flood, 13 to 15 days, scale 0 (no effect) to 100 (complete control); read-out: Plant response rating, Ducksalad
Procedure, shortened: as §3

[20] = test system: sedge, umbrella (small-flower umbrella sedge, Cyperus difformis); experiment: Test B flooded paddy; settings: Cyperus difformis, 336 h; 250 g ai/ha, Flood, 13 to 15 days, scale 0 (no effect) to 100 (complete control); read-out: Plant response rating, Sedge, Umbrella
Procedure, shortened: as §3

For `Fc1cccc(Oc2ncc(Cl)cn2)c1Oc1ncc(C(F)(F)F)cn1` [Compound 43, 5-chloro-2-[5-fluoro-6-[[5-(trifluoromethyl)-2-pyrimidinyl]oxy]phenoxy]pyrimidine], the pest or weed control at 125 g/ha ([1]; 125 g ai/ha, 0 to 100 scale (0 no effect, 100 complete control), read-out: Ragweed plant response rating) was 70%, the pest or weed control at 500 g/ha ([1]; 500 g ai/ha, 0 to 100 scale, read-out: Plant response rating, Ragweed) was 100% and the pest or weed control at 125 g/ha ([2]; 125 g ai/ha, 0 to 100 scale (0 no effect, 100 complete control), read-out: Barnyardgrass plant response rating) was 100%. The pest or weed control at 500 g/ha ([2]; 500 g ai/ha, 0 to 100 scale, read-out: Plant response rating, Barnyardgrass) was 100%, the pest or weed control at 125 g/ha ([3]; 125 g ai/ha, 0 to 100 scale (0 no effect, 100 complete control), read-out: Ryegrass, Italian plant response rating) was 50% and the pest or weed control at 500 g/ha ([3]; 500 g ai/ha, 0 to 100 scale, read-out: Plant response rating, Ryegrass, Italian) was 100%. The pest or weed control at 125 g/ha ([4]; 125 g ai/ha, 0 to 100 scale (0 no effect, 100 complete control), read-out: Pigweed plant response rating) was 100%, the pest or weed control at 500 g/ha ([4]; 500 g ai/ha, 0 to 100 scale, read-out: Plant response rating, Pigweed) was 100% and the pest or weed control at 125 g/ha (kochia (Kochia scoparia) [5]; 125 g ai/ha, 0 to 100 scale (0 no effect, 100 complete control), read-out: Kochia plant response rating) was 100%. The pest or weed control at 500 g/ha (kochia (Kochia scoparia) [5]; 500 g ai/ha, 0 to 100 scale, read-out: Plant response rating, Kochia) was 100%, the pest or weed control at 125 g/ha ([6]; 125 g ai/ha, 0 to 100 scale (0 no effect, 100 complete control), read-out: Foxtail, Giant plant response rating) was 100% and the pest or weed control at 500 g/ha ([6]; 500 g ai/ha, 0 to 100 scale, read-out: Plant response rating, Foxtail, Giant) was 100%. It also gave a pest or weed control at 31 g/ha ([7]; 31 g ai/ha, preemergence) of 100%, a pest or weed control at 62 g/ha ([7]; 62 g ai/ha, preemergence) of 100% and a pest or weed control at 125 g/ha ([7]; 125 g ai/ha, preemergence) of 100%. For the same compound, the pest or weed control at 16 g/ha ([7]; Preemergence, 16 g ai/ha) was 100%, the pest or weed control at 31 g/ha ([8]; 31 g ai/ha, preemergence, scale 0 to 100) was 85% and the pest or weed control at 62 g/ha ([8]; 62 g ai/ha, preemergence, scale 0 to 100) was 100%. It also gave a pest or weed control at 125 g/ha ([8]; 125 g ai/ha, preemergence, scale 0 to 100) of 100%, a pest or weed control at 16 g/ha ([8]; Preemergence, 16 g ai/ha, scale 0 to 100 (0 no effect, 100 complete control)) of 60% and a pest or weed control at 125 g/ha ([9]; 125 g ai/ha) of 90%. It also gave a pest or weed control at 500 g/ha ([9]; 500 g ai/ha) of 100%, a pest or weed control at 125 g/ha ([10]; 125 g ai/ha) of 70% and a pest or weed control at 500 g/ha ([10]; 500 g ai/ha) of 100%. For the same compound, the pest or weed control at 125 g/ha ([11]; 125 g ai/ha) was 90%, the pest or weed control at 500 g/ha ([11]; 500 g ai/ha) was 100% and the Corn plant response rating (crop injury, 0 = no effect, 100 = complete kill) at 125 g/ha (corn (Zea mays); 125 g ai/ha) was 70%. The Corn plant response rating (crop injury, 0 = no effect, 100 = complete kill) at 500 g/ha (corn (Zea mays); 500 g ai/ha) was 100%, the pest or weed control at 125 g/ha ([12]; 125 g ai/ha) was 80% and the pest or weed control at 500 g/ha ([12]; 500 g ai/ha) was 100%. The plant injury at 125 g/ha ([13]; 125 g ai/ha) was 80%, the plant injury at 500 g/ha ([13]; 500 g ai/ha) was 100% and the pest or weed control at 125 g/ha ([14]; 125 g ai/ha) was 100%. For the same compound, the pest or weed control at 500 g/ha ([14]; 500 g ai/ha) was 100%, the pest or weed control at 125 g/ha ([15]; 125 g ai/ha) was 100% and the pest or weed control at 500 g/ha ([15]; 500 g ai/ha) was 100%. The pest or weed control at 125 g/ha (kochia (Kochia scoparia) [16]; 125 g ai/ha) was 100%, the pest or weed control at 500 g/ha (kochia (Kochia scoparia) [16]; 500 g ai/ha) was 100% and the pest or weed control at 125 g/ha ([17]; 125 g ai/ha) was 90%. For the same compound, the pest or weed control at 500 g/ha ([17]; 500 g ai/ha) was 100%, the plant injury at 250 g/ha (rice (Oryza sativa)) was 60% and the pest or weed control at 250 g/ha [18] was 85%. For the same compound, the pest or weed control at 250 g/ha [19] was 100% and the pest or weed control at 250 g/ha [20] was 90%.
